Reference: patent US7763602B2, “Pyrrole derivatives as antimycobacterial compounds” (priority 2002, dated 2010)
Converted amounts (≈) assume the structure as drawn. Like-named read-outs stand apart in the source and are kept apart here.

Columns and labels:
[1] = tested on: M. tuberculosis clinical isolates, resistant; experiment: microbe, parasite or virus in culture; format: cell-based, Mycobacterium tuberculosis; details: for MIC: Mycobacterium tuberculosis; for MIC (μg/ml) against Clinical isolates Resistant: Table I, agar dilution
[2] = tested on: M. tuberculosis (Resistant strain); format: in vivo, mice; details: Table V; for Mean Log10 No. of CFU Lung / Mean Log10 No. of CFU Spleen: 5 day/week for 4 week, treated 01 day post-infection; for Mean Log10 No. of reduction Lung / Mean Log10 No. of reduction Spleen: difference from early controls

Cc1c(CN2CCN(c3cccc(C(F)(F)F)c3)CC2)cc(-c2ccc(Cl)cc2)n1-c1ccc(Cl)cc1 [Compound No. 3, 1-{[1,5-bis(4-chlorophenyl)-2-methylpyrrol-3-yl]methyl}-4-(3-trifluoromethylphenyl)piperazine]
MIC ([1]; read-out: MIC (μg/ml) M. tuberculosis Resistant (n = 26)): 0.25 to 0.5 µg/mL (≈ 0.459 to 0.918 µM) | MIC ([1]; read-out: MIC (μg/ml) against Clinical isolates Resistant): 0.25 to 0.5 µg/mL (≈ 0.459 to 0.918 µM) | Mean Log10 No. of CFU Lung ([2]; 12.5 mg/kg): 2.98 ± 0.5 | Mean Log10 No. of CFU Spleen ([2]; 12.5 mg/kg): 2.91 ± 0.4 | Mean Log10 No. of reduction Lung ([2]; 12.5 mg/kg): 1.49 | Mean Log10 No. of reduction Spleen ([2]; 12.5 mg/kg): 1.72 | Mean Log10 No. of CFU Lung ([2]; 25 mg/kg): 2.3 ± 0.17 | Mean Log10 No. of CFU Spleen ([2]; 25 mg/kg): 2.2 ± 0.31 | Mean Log10 No. of reduction Lung ([2]; 25 mg/kg): 2.17 | Mean Log10 No. of reduction Spleen ([2]; 25 mg/kg): 2.43 | Mean Log10 No. of CFU Lung ([2]; 50 mg/kg): 1.99 ± 0.3 | Mean Log10 No. of CFU Spleen ([2]; 50 mg/kg): 1.97 ± 0.4 | Mean Log10 No. of reduction Lung ([2]; 50 mg/kg): 2.48 | Mean Log10 No. of reduction Spleen ([2]; 50 mg/kg): 2.66

NNC(=O)c1ccncc1 [Isoniazid, reference compound]
Mean Log10 No. of CFU Lung ([2]; 12.5 mg/kg): 5.8 ± 0.4 | Mean Log10 No. of CFU Spleen ([2]; 12.5 mg/kg): 5.79 ± 0.4 | Mean Log10 No. of reduction Lung ([2]; 12.5 mg/kg): −1.33 | Mean Log10 No. of reduction Spleen ([2]; 12.5 mg/kg): −1.16 | Mean Log10 No. of CFU Lung ([2]; 25 mg/kg): 5.12 ± 0.6 | Mean Log10 No. of CFU Spleen ([2]; 25 mg/kg): 5.43 ± 0.5 | Mean Log10 No. of reduction Lung ([2]; 25 mg/kg): −0.65 | Mean Log10 No. of reduction Spleen ([2]; 25 mg/kg): −0.8 | Mean Log10 No. of CFU Lung ([2]; 50 mg/kg): 4.43 ± 0.5 | Mean Log10 No. of CFU Spleen ([2]; 50 mg/kg): 4.7 ± 0.31 | Mean Log10 No. of reduction Lung ([2]; 50 mg/kg): 0.04 | Mean Log10 No. of reduction Spleen ([2]; 50 mg/kg): −0.07

Cc1c(CN2CCN(c3cccc(C(F)(F)F)c3)CC2)cc(-c2ccc(Cl)cc2)n1-c1cccc2ccccc12 [compound 60, 1-{[5-(4-chlorophenyl)-2-methyl-1-naphthylpyrrol-3-yl]methyl}-4-(3-trifluoromethylphenyl)piperazine]
MIC (μg/ml) against Clinical isolates Resistant [1]: 4.0 to 16.0 µg/mL

Cc1c(CN2CCN(c3ccccn3)CC2)cc(-c2ccc(Cl)cc2)n1-c1cccc2ccccc12 [compound 61, 1-{[5-(4-chlorophenyl)-2-methyl-1-naphthylpyrrol-3-yl]methyl}-4-(2-pyridyl) piperazine]
MIC (μg/ml) against Clinical isolates Resistant [1]: 4.0 to 8.0 µg/mL

Cc1c(CN2CCN(Cc3ccc4c(c3)OCO4)CC2)cc(-c2ccc(Cl)cc2)n1-c1cccc2ccccc12 [compound 62, 5-[(4-{[5-(4-chlorophenyl)-2-methyl-1-naphthylpyrrol-3-yl]methyl}-piperazinyl)methyl]-2H-benzo[d]1,3-dioxolane]
MIC (μg/ml) against Clinical isolates Resistant [1]: >16.0 µg/mL

COc1ccccc1N1CCN(Cc2cc(C)n(-c3cccc4ccccc34)c2-c2ccc(Cl)cc2)CC1 [compound 63, 1-{[2-(4-chlorophenyl)-5-methyl-1-naphthylpyrrol-3-yl]methyl}-4-(2-methoxyphenyl)piperazine]
MIC (μg/ml) against Clinical isolates Resistant [1]: 4.0 to 16.0 µg/mL

Cc1cc(CN2CCN(c3cccc(C(F)(F)F)c3)CC2)c(-c2ccc(Cl)cc2)n1-c1cccc2ccccc12 [compound 64, 1-{[2-(4-chlorophenyl)-5-methyl-1-naphthylpyrrol-3-yl]methyl}-4-(3-trifluoromethylphenyl)piperazine]
MIC (μg/ml) against Clinical isolates Resistant [1]: >16.0 µg/mL

Cc1c(CN2CCS(=O)(=O)CC2)cc(-c2ccccc2)n1-c1ccccc1 [compound 88]
MIC (μg/ml) against Clinical isolates Resistant [1]: 2.0 to 8.0 µg/mL

Cc1c(CN2CCSCC2)cc(-c2ccc(Cl)cc2)n1NC(=O)c1ccncc1 [compound 89, N-[5-(4-chlorophenyl)-2-methyl-3-(1,4-thiazaperhydroin-4-ylmethyl)pyrrolyl]-4-pyridylcarboxamide]
MIC (μg/ml) against Clinical isolates Resistant [1]: 4.0 to 8.0 µg/mL

CCC(CO)n1c(C)c(CN2CCSCC2)c(CO)c1-c1ccccc1 (stereo not shown) [compound 90, 2-[3-(hydroxymethyl)-5-methyl-2-phenyl-4-(1,4-thiazaperhydroin-4-ylmethyl)-pyrrolyl]butan-1-ol]
MIC (μg/ml) against Clinical isolates Resistant [1]: >16.0 µg/mL
